Format in all cases: physicochemical
Data set [1] is described as follows: Aqueous solubility of the drugs. The text has this:
It will be recognized that aqueous solubility of many drugs is pH dependent; in the case of such drugs the solubility of interest herein is at a physiologically relevant pH, for example a pH of about 1 to about 8.

A short description of data set [2]: Solubility of ABT-102 in various carriers (Example 14). The conditions noted are these: thermodynamic from solid, room temperature, read-out: Solubility (S). On the procedure: An accurately weighed quantity of about 1 g of each excipient was weighed into three glass vials. Semisolid excipients were warmed in a water bath at around 50-60° C. until completely melted before weighing. An accurately weighed quantity of ABT-102 of about 25 mg, 50 mg and 100 mg was weighed into each of the three vials containing the same excipients. The vials were closed tightly and mixed for around 30 seconds by vortexing and then sonicating in a warm water bath. The vials were visually observed for dissolution after 5-6 hours. Solubility is reported in Table 11 below based on volume of carrier providing a clear solution and volume of carrier where solid was present. All solubility values were determined at room temperature.

Data set [3] can be described thus: Screening of carriers for solubility of ABT-869 (Example 1). The conditions noted are these: thermodynamic from solid, room temperature, read-out: Solubility (S). How it is done:
Approximately 20 mg of ABT-869 was weighed and added to a 0.3 ml vial. A test carrier (100 μl) was then added by pipette to the vial. The vial was three times alternately vortexed for about 30 seconds and sonicated for about 1 minute to ensure adequate wetting and dispersion of the ABT-869. The vial was wrapped in aluminum foil, placed in a Labquake™ rotator and rotated for a minimum of 24 hours. […] If solid was still present, carrier was added until all solid had dissolved and the resulting solution was clear. Approximate solubility is reported in Table 1 below as a range based on volume of carrier providing a clear solution and volume of carrier where solid was present. All solubility values were determined at room temperature.

The nature of data set [4]: Solubility of ABT-869 in carriers comprising Phosal 53 MCT (Example 2, HPLC). The conditions noted are these: 25° C. On the procedure: Solubility of ABT-869 was measured in various carriers comprising Phosal 53 MCT™. Approximately 100-400 mg of ABT-869 was weighed and added to a 4 ml glass vial, to which 2 ml of a test carrier was added. The vial was then vortexed and sonicated for 10 minutes. The vials were wrapped with aluminum foil, placed in a water bath at 25° C. and agitated for 2 days. The contents of the vials were then filtered and the filtrate diluted 25× with mobile phase for HPLC analysis.

Data set [5] is described as follows: Solubility of isotretinoin in Phosal 53 MCT and typical solvents (Example 11).
Data set [6] can be described thus: Solubility of paricalcitol in various carriers (Example 13).

Converted amounts (≈) assume the structure as drawn.

The text below walks through data of patent US20070104780A1, “Formulation comprising a drug of low water solubility and method of use thereof” (priority 2005, published 2007).

Consider `CC(C)(C)c1ccc2c(c1)CC[C@H]2NC(=O)Nc1cccc2[nH]ncc12` [ABT-102], for which the solubility in data set [1] (water, pH 1.1, simulated gastric fluid, read-out: solubility in water) is approximately 0.102 µg/mL (≈ 0.000293 mM); in data set [1] (water, pH 6.8, aqueous buffer, read-out: solubility in water) it was approximately 0.0573 µg/mL (≈ 0.000164 mM); in data set [2] (oil or lipid, carrier Gelucire 44/14) it was 25 to 50 mg/mL (≈ 71.7 to 143 mM); in data set [2] (oil or lipid, carrier Phosal 50 PG), 50 to 100 mg/mL (≈ 143 to 287 mM); in data set [2] (oil or lipid, carrier Phosal 53 MCT), 50 to 100 mg/mL (≈ 143 to 287 mM); in data set [2] (oil or lipid, carrier Vit.E TPGS), less than 200 mg/mL. Further, the solubility in data set [2] (organic solvent or mixture, carrier PEG 400) amounted to 71 mg/mL (≈ 204 mM); in data set [2] (organic solvent or mixture, carrier VP Dimer (VPD)), 160 mg/mL (≈ 459 mM).
Turning to `Cc1ccc(F)c(NC(=O)Nc2ccc(-c3cccc4[nH]nc(N)c34)cc2)c1` [ABT-869, N-[4-(3-amino-1H-indazol-4-yl)phenyl]-N′-(2-fluoro-5-methylphenyl)urea], the solubility in data set [1] (pH 1, simulated gastric fluid) was approximately 1.7 µg/mL (≈ 0.00453 mM); in data set [1] (pH 5, aqueous buffer), approximately 0.027 µg/mL (≈ 7.19e-05 mM); in data set [3] (oil or lipid, carrier 10% ethanol, 90% Phosal 50 PG), 50 to 67 mg/mL (≈ 133 to 178 mM); in data set [3] (oil or lipid, carrier 10% ethanol, 90% Phosal 53 MCT), 67 to 100 mg/mL (≈ 178 to 266 mM); in data set [3] (oil or lipid, carrier 100% Captex 355 EP), less than 50 mg/mL; in data set [3] (organic solvent or mixture, carrier 10% ethanol, 20% polysorbate 80, 70% PEG 400) it was more than 200 mg/mL. Moreover, the solubility in data set [3] (organic solvent or mixture, carrier 10% ethanol, 30% Phosal 50 PG, 60% PEG 400) is more than 200 mg/mL; in data set [3] (organic solvent or mixture, carrier 10% ethanol, 90% PEG 400), more than 200 mg/mL; in data set [3] (organic solvent or mixture, carrier 100% PEG 400), more than 200 mg/mL; in data set [4] (carrier 5% ethanol, 95% Phosal 53 MCT), 115 mg/g; in data set [4] (carrier 10% PEG 400, 0.5% Tween 80, 4.5% ethanol, 85% Phosal 53 MCT), more than 122 mg/g; in data set [4] (carrier 10% PEG 400, 5% ethanol, 85% Phosal 53 MCT), more than 123 mg/g. In addition, the solubility in data set [4] (carrier 10% PEG 400, 90% Phosal 53 MCT) amounted to 139 mg/g; in data set [4] (carrier 10% ethanol, 90% Phosal 53 MCT) it was 97 mg/g; in data set [4] (carrier 20% PEG 400, 80% Phosal 53 MCT), 166 mg/g; in data set [4] (carrier 30% PEG 400, 70% Phosal 53 MCT), 185 mg/g; in data set [4] (carrier 40% PEG 400, 60% Phosal 53 MCT), 199 mg/g; in data set [4] (carrier 50% PEG 400, 50% Phosal 53 MCT) it was 221 mg/g. Besides, the solubility in data set [4] (carrier 100% Phosal 53 MCT) was 95 mg/g.
Consider `CC1=C(/C=C/C(C)=C/C=C/C(C)=C\C(=O)O)C(C)(C)CCC1` [Isotretinoin], for which the solubility in data set [1] is approximately 5 µg/mL (≈ 0.0166 mM); in data set [5] (in caprylic/capric triglycerides), 5.1 mg/g; in data set [5] (in ethanol) it was 16.7 mg/g; in data set [5] (in oleic acid), 19.1 mg/g; in data set [5] (in soybean oil), 2.4 mg/g. This compound also registered a solubility limit in data set [5] (in Phosal 53 MCT at 25° C.) of 72 to 78 mg/g.
Compound `C[C@H](/C=C/[C@H](C)C(C)(C)O)[C@H]1CC[C@H]2/C(=C/C=C3C[C@@H](O)C[C@H](O)C3)CCC[C@]12C` [paricalcitol] returned a solubility in data set [1] (pH 7.4, aqueous buffer) of 0.0115 µg/mL (≈ 2.76e-05 mM). The “Solubility (mean of 2 tests)” value in data set [6] (carrier 10% hydroxypropyl-β-cyclodextrin in PEG) was 734 µg/g; in data set [6] (carrier Neobee M5 + 0.5% ethanol), 194 µg/g; in data set [6] (carrier PEG 400), 1,085 μg/g; in data set [6] (carrier Phosal 50 SA) it was 752 µg/g; in data set [6] (carrier Phosal 53 MCT), 1,459 μg/g; in data set [6] (carrier castor oil), 344 µg/g. The “Solubility (mean of 2 tests)” value in data set [6] (carrier glyceryl monooleate) was 1,067 μg/g; in data set [6] (carrier medium chain monoglycerides (Capmul MCM)), 5,057 μg/g; in data set [6] (carrier medium chain triglycerides (Neobee M5)) it was 165 µg/g; in data set [6] (carrier oleic acid), 819 µg/g; in data set [6] (carrier polysorbate 80 (Tween 80)), 1,353 μg/g; in data set [6] (carrier propylene glycol), 5,791 μg/g. Besides, the “Solubility (mean of 2 tests)” value in data set [6] (carrier triethyl citrate) came out at 453 µg/g.
